This note sets out measurements from publication PMC3197600 (PLoS Pathogens, 2011).

What all share (test): biochemical
Assay [1] has as its target p57N2 (pandemic A/RI/5+/1957 H2N2 N2 neuraminidase) (Influenza A virus, UniProt Q194T1). Also on record: species or system influenza A virus A/RI/5+/1957 H2N2.
In assay [2] the target is N5 (avian H12N5 neuraminidase) (Influenza A virus (A/duck/Alberta/60/1976(H12N5)), UniProt A1ILL9).
Assay [3] has as its target p09N1 (pH1N1 N1 neuraminidase) (Influenza A virus (A/California/04/2009(H1N1)), UniProt C3W5S3). Also on record: species or system 2009 pandemic influenza A H1N1 virus.

Take `[H]/N=C(\N)N[C@H]1C=C(C(=O)O)O[C@@H]([C@H](OC)[C@H](O)COC(=O)CCCCCCC)[C@@H]1NC(C)=O` [CS-8958, laninamivir octanoate]: the 50% inhibitory concentration (IC50) was 129 nM in assay [1], 389 nM in assay [2] and 947 nM in assay [3].

For `CO[C@@H]([C@@H]1OC(C(=O)O)=C[C@H](NC(=N)N)[C@H]1NC(C)=O)[C@H](O)CO` [laninamivir], the figures for the IC50 in assay [1] and in assay [2] were 3.12 nM and 0.9 nM, respectively.

`CCOC(=O)C1=C[C@@H](OC(CC)CC)[C@H](NC(C)=O)[C@@H](N)C1` [oseltamivir]: the values for the 50% inhibitory concentration (IC50) in assay [1] and in assay [2] were 0.79 nM and 0.83 nM, respectively.
